Measurements as given in ChEMBL document CHEMBL4033720, “Discovery of novel cyclic peptide inhibitors of dengue virus NS2B-NS3 protease with antiviral activity” (Bioorg Med Chem Lett, 2017).
Where a SMILES comes first, the peptide text is derived from it.

Experiments:
[1] = Inhibition of dengue virus 2 NS2B-NS3 protease pre-incubated for 10 mins before Boc-Gly-Arg-Arg-peptidyl-4-methylcoumaryl-7-amide substrate addition and measured after 2 hrs by fluorescence based assay; set-up: species or system dengue virus type 2
[2] = test system: dengue virus type 2; assay: Antiviral activity against dengue virus 2 infected in BHK21 cells assessed as inhibition of virus-induced cytopathic effect after 4 days by resazurin dye based method; assay type: functional, cell-based
[3] = Toxicity in BHK21 cells assessed a reduction in cell viability after 4 days by resazurin dye based method; set-up: species or system Mesocricetus auratus, BHK-21; conditions: hamster
[4] = Selectivity index, ratio of CC50 for toxicity in BHK21 cells to EC50 for antiviral activity against dengue virus 2 infected in BHK21 cells; assay type: cell-based; conditions: hamster, read-out: Ratio CC50/EC50
[5] = Stability assessed as dengue virus 2 NS2B-NS3 protease-mediated compound degradation by measuring linear peptide with P1 C-terminus and P' N-terminus at 200 uM in presence of […] incubated for 0 to 22.5 hrs by LC-MS method; assay type: ADME; conditions: dengue virus type 2, 200 µM
[6] = Stability assessed as dengue virus 2 NS2B-NS3 protease-mediated compound degradation at 200 uM in presence of […] incubated for 0 to 22.5 hrs by LC-MS method; assay type: ADME; conditions: dengue virus type 2, 200 µM
[7] = Dengue virus, BHK-21, 96 h, read-out: EC50

Row | IC50 [1] [µM] | Compound | other results
1 | > 200 | C[C@@H]1NC(=O)[C@H](CS)NC(=O)CNC(=O)[C@H](C)NC(=O)[C@H](CCCCN)NC(=O)[C@H](CCCNC(=N)N)NC(=O)[C@H](CCCCN)NC(=O)CNC1=O (HELM PEPTIDE1{A.G.C.A.G.K.R.K}$PEPTIDE1,PEPTIDE1,1:R1-8:R2$$$V2.0) | 
2 | 1.7 | N=C(N)NCCC[C@@H]1NC(=O)[C@H](CCCNC(=N)N)NC(=O)[C@@H](CCCNC(=N)N)NC(=O)[C@@H](Cc2ccc3ccccc3c2)NC(=O)[C@H](Cc2ccccc2)NC(=O)[C@H](CCc2ccccc2)NC(=O)[C@@H](Cc2ccccc2)NC(=O)[C@H](CCCCN)NC1=O | EC50 [2, 7]: 4.6 µM; CC50 at 96 h [3]: 86 µM
3 | > 200 | C[C@@H]1NC(=O)[C@H](CS)NC(=O)CNC(=O)[C@H](CO)NC(=O)[C@H](CCCCN)NC(=O)[C@H](C)NC(=O)[C@H](CCCCN)NC(=O)CNC1=O (HELM PEPTIDE1{A.G.K.A.K.S.G.C}$PEPTIDE1,PEPTIDE1,1:R1-8:R2$$$V2.0) | 
4 | > 200 | C[C@@H]1NC(=O)[C@H](CS)NC(=O)CNC(=O)[C@H](CO)NC(=O)[C@H](C)NC(=O)[C@H](CCCNC(=N)N)NC(=O)[C@H](CCCCN)NC(=O)CNC1=O (HELM PEPTIDE1{A.G.K.R.A.S.G.C}$PEPTIDE1,PEPTIDE1,1:R1-8:R2$$$V2.0) | 
5 | 16.2 | C[C@@H]1NC(=O)[C@H](CCc2ccccc2)NC(=O)[C@H](CO)NC(=O)[C@H](CCCCN)NC(=O)[C@H](CCCNC(=N)N)NC(=O)[C@H](CCCCN)NC(=O)CNC(=O)[C@@H](CCc2ccccc2)NC1=O | 
6 | 22.2 | C[C@@H]1NC(=O)[C@H](CCc2ccccc2)NC(=O)[C@H](CO)NC(=O)[C@H](CCCCN)NC(=O)[C@H](CCCNC(=N)N)NC(=O)[C@H](CCCCN)NC(=O)CNC(=O)[C@H](c2ccccc2)NC1=O | 
7 | 15.1 | C[C@@H]1NC(=O)[C@H](CCc2ccccc2)NC(=O)[C@H](CO)NC(=O)[C@H](CCCCN)NC(=O)[C@H](CCCNC(=N)N)NC(=O)[C@H](CCCCN)NC(=O)CNC(=O)[C@@H](c2ccccc2)NC1=O | 
8 | > 200 | C[C@@H]1NC(=O)CNC(=O)[C@H](C)NC(=O)[C@H](CS)NC(=O)CNC(=O)[C@H](CO)NC(=O)[C@H](CCCCN)NC(=O)[C@H](CCCNC(=N)N)NC1=O (HELM PEPTIDE1{A.G.A.R.K.S.G.C}$PEPTIDE1,PEPTIDE1,1:R1-8:R2$$$V2.0) | 
9 | 3.8 | N=C(N)NCCC[C@@H]1NC(=O)[C@H](CCCCN)NC(=O)[C@H]2CCCN2C(=O)[C@@H](Cc2ccccc2)NC(=O)[C@H](CO)NC(=O)[C@H](Cc2ccc(-c3ccccc3)cc2)NC(=O)[C@H](CO)NC(=O)[C@H](CCCCN)NC1=O | EC50 [2, 7]: 293 µM; CC50 at 96 h [3]: > 400 µM
10 | 1.1 | N=C(N)NCCC[C@@H]1NC(=O)[C@H](CCCNC(=N)N)NC(=O)[C@@H](CCCNC(=N)N)NC(=O)[C@@H](Cc2ccc3ccccc3c2)NC(=O)[C@H](Cc2ccccc2)NC(=O)[C@H](CCc2ccccc2)NC(=O)[C@@H](Cc2ccc3ccccc3c2)NC(=O)[C@H](CCCCN)NC1=O | EC50 [2, 7]: 2 µM; CC50 at 96 h [3]: 24 µM; selectivity ratio [4]: > 10
11 | 5 | N=C(N)NCCC[C@@H]1NC(=O)[C@H](CCCCN)NC(=O)CNC(=O)[C@@H](Cc2ccccc2)NC(=O)[C@H](CO)NC(=O)[C@H](CCc2ccccc2)NC(=O)[C@H](CO)NC(=O)[C@H](CCCCN)NC1=O | 
12 | 38.7 | C[C@@H]1NC(=O)[C@H](CS)NC(=O)[C@@H](CCc2ccccc2)NC(=O)[C@H](CO)NC(=O)[C@H](CCCCN)NC(=O)[C@H](CCCNC(=N)N)NC(=O)[C@H](CCCCN)NC(=O)CNC1=O | 
13 | 3.7 | N=C(N)NCCC[C@@H]1NC(=O)[C@H](CCCNC(=N)N)NC(=O)[C@@H](CCCNC(=N)N)NC(=O)[C@@H](Cc2ccccc2)NC(=O)[C@H](CO)NC(=O)[C@H](Cc2ccc(-c3ccccc3)cc2)NC(=O)[C@H](CO)NC(=O)[C@H](CCCCN)NC1=O | EC50 [2, 7]: 87.5 µM; CC50 at 96 h [3]: > 400 µM
14 | 114 | C[C@@H]1NC(=O)[C@H](CS)NC(=O)CNC(=O)[C@H](CO)NC(=O)[C@H](CCCCN)NC(=O)[C@H](CCCNC(=N)N)NC(=O)[C@H](CCCCN)NC(=O)CNC1=O (HELM PEPTIDE1{A.G.K.R.K.S.G.C}$PEPTIDE1,PEPTIDE1,1:R1-8:R2$$$V2.0) | 
15 | 1.5 | N=C(N)NCCC[C@@H]1NC(=O)[C@H](CCCNC(=N)N)NC(=O)[C@@H](CCCNC(=N)N)NC(=O)[C@@H](Cc2ccccc2)NC(=O)[C@H](Cc2ccc3ccccc3c2)NC(=O)[C@H](CCc2ccccc2)NC(=O)[C@H](CO)NC(=O)[C@H](CCCCN)NC1=O | EC50 [2, 7]: 48.5 µM; CC50 at 96 h [3]: 210 µM
16 | 39.3 | C[C@@H]1NC(=O)[C@H](CS)NC(=O)[C@H](Cc2ccccc2)NC(=O)[C@H](CO)NC(=O)[C@H](CCCCN)NC(=O)[C@H](CCCNC(=N)N)NC(=O)[C@H](CCCCN)NC(=O)CNC1=O (HELM PEPTIDE1{A.G.K.R.K.S.F.C}$PEPTIDE1,PEPTIDE1,1:R1-8:R2$$$V2.0) | 

Row | IC50 [1] [µM] | Compound | other results
17 | 18.4 | C[C@@H]1NC(=O)[C@H](C)NC(=O)[C@H](CCc2ccccc2)NC(=O)[C@H](CO)NC(=O)[C@H](CCCCN)NC(=O)[C@H](CCCNC(=N)N)NC(=O)[C@H](CCCCN)NC(=O)CNC1=O (HELM PEPTIDE1{A.A.G.K.R.K.S.[O=C([C@H](CCc1ccccc1)N[*:1])[*:2]]}$PEPTIDE1,PEPTIDE1,1:R1-8:R2$$$V2.0) | 
18 | 7.6 | C[C@@H]1NC(=O)[C@H](CCc2ccccc2)NC(=O)[C@H](CO)NC(=O)[C@H](CCCCN)NC(=O)[C@H](CCCNC(=N)N)NC(=O)[C@H](CCCCN)NC(=O)CNC(=O)[C@@H](Cc2ccccc2)NC1=O | 
19 | 2.3 | N=C(N)NCCC[C@@H]1NC(=O)[C@H](CCCNC(=N)N)NC(=O)[C@@H](CCCNC(=N)N)NC(=O)[C@@H](CCCNC(=N)N)NC(=O)[C@H](CO)NC(=O)[C@H](Cc2ccc(-c3ccccc3)cc2)NC(=O)[C@H](CO)NC(=O)[C@H](CCCCN)NC1=O | EC50 [2, 7]: 141 µM; CC50 at 96 h [3]: > 400 µM
20 | 19.8 | C[C@@H]1NC(=O)[C@H](CCc2ccccc2)NC(=O)[C@H](CO)NC(=O)[C@H](CCCCN)NC(=O)[C@H](CCCNC(=N)N)NC(=O)[C@H](CCCCN)NC(=O)CNC(=O)[C@H](Cc2ccccc2)NC1=O | 
21 | 1.6 | N=C(N)NCCC[C@@H]1NC(=O)[C@H](CCCNC(=N)N)NC(=O)[C@@H](CCCNC(=N)N)NC(=O)[C@@H](Cc2ccccc2)NC(=O)[C@H](Cc2cccc3ccccc23)NC(=O)[C@H](CCc2ccccc2)NC(=O)[C@H](CO)NC(=O)[C@H](CCCCN)NC1=O | EC50 [2, 7]: 23.2 µM; Drug metabolism [5]: Metabolite_Detected; CC50 at 96 h [3]: 233 µM; Stability [6]: Unstable
22 | 52 | N=C(N)NCCC[C@@H]1NC(=O)[C@H](CCCCN)NC(=O)[C@@H]2CCCN2C(=O)[C@@H](Cc2ccccc2)NC(=O)[C@H](CO)NC(=O)[C@H](CCc2ccccc2)NC(=O)[C@H](CO)NC(=O)[C@H](CCCCN)NC1=O | 
23 | 0.95 | N=C(N)NCCC[C@@H]1NC(=O)[C@H](CCCCN)NC(=O)[C@H]2CCCN2C(=O)[C@@H](Cc2ccccc2)NC(=O)[C@H](CO)NC(=O)[C@H](CCc2ccccc2)NC(=O)[C@H](CO)NC(=O)[C@H](CCCCN)NC1=O | EC50 [2]: Not Active; Stability [6]: Unstable
24 | 22.1 | C[C@@H]1NC(=O)[C@H](CS)NC(=O)[C@H](c2ccccc2)NC(=O)[C@H](CO)NC(=O)[C@H](CCCCN)NC(=O)[C@H](CCCNC(=N)N)NC(=O)[C@H](CCCCN)NC(=O)CNC1=O (HELM PEPTIDE1{A.G.K.R.K.S.[Phg].C}$PEPTIDE1,PEPTIDE1,1:R1-8:R2$$$V2.0) | 
25 | 57.4 | C[C@@H]1NC(=O)CNC(=O)[C@H](CO)NC(=O)[C@H](CCCCN)NC(=O)[C@H](CCCNC(=N)N)NC(=O)[C@H](CCCCN)NC(=O)CNC(=O)[C@H](C)NC1=O (HELM PEPTIDE1{A.A.G.K.R.K.S.G}$PEPTIDE1,PEPTIDE1,1:R1-8:R2$$$V2.0) | 
26 | 25.6 | C[C@@H]1NC(=O)[C@H](CCc2ccccc2)NC(=O)[C@H](CO)NC(=O)[C@H](CCCCN)NC(=O)[C@H](CCCNC(=N)N)NC(=O)[C@H](CCCCN)NC(=O)CNC(=O)[C@H](CCc2ccccc2)NC1=O | 
27 | 28.5 | C[C@@H]1NC(=O)[C@@H](Cc2ccccc2)NC(=O)[C@H](CO)NC(=O)[C@H](CCc2ccccc2)NC(=O)[C@H](CO)NC(=O)[C@H](CCCCN)NC(=O)[C@H](CCCNC(=N)N)NC(=O)[C@H](CCCCN)NC1=O | 
28 | 2.6 | N=C(N)NCCC[C@@H]1NC(=O)[C@H](CCCCN)NC(=O)[C@H]2CCCN2C(=O)[C@@H](Cc2ccccc2)NC(=O)[C@H](CO)NC(=O)[C@H](Cc2ccc3ccccc3c2)NC(=O)[C@H](CO)NC(=O)[C@H](CCCCN)NC1=O | EC50 [2, 7]: 306 µM; CC50 at 96 h [3]: > 400 µM
29 | 3.3 | C[C@H]1NC(=O)[C@@H](Cc2ccccc2)NC(=O)[C@H](CO)NC(=O)[C@H](CCc2ccccc2)NC(=O)[C@H](CO)NC(=O)[C@H](CCCCN)NC(=O)[C@H](CCCNC(=N)N)NC(=O)[C@H](CCCCN)NC1=O | 
30 | 3.8 | N=C(N)NCCC[C@@H]1NC(=O)[C@H](CCCNC(=N)N)NC(=O)[C@H]2CCCN2C(=O)[C@@H](Cc2ccccc2)NC(=O)[C@H](CO)NC(=O)[C@H](Cc2ccc(-c3ccccc3)cc2)NC(=O)[C@H](CO)NC(=O)[C@H](CCCCN)NC1=O | EC50 [2, 7]: 108 µM; CC50 at 96 h [3]: > 400 µM
31 | 9.2 | C[C@@H]1NC(=O)[C@H](CS)NC(=O)[C@H](CCc2ccccc2)NC(=O)[C@H](CO)NC(=O)[C@H](CCCCN)NC(=O)[C@H](CCCNC(=N)N)NC(=O)[C@H](CCCCN)NC(=O)CNC1=O | 
